Experimental data published in PMC4332668, “Characterization of a Novel PQQ-Dependent Quinohemoprotein Pyranose Dehydrogenase from Coprinopsis cinerea Classified into Auxiliary Activities Family 12 in Carbohydrate-Active Enzymes” (PLoS ONE, 2015).

Molecular target: T1, DHPDH (Coprinopsis cinerea, UniProt A8P0V4)
T1 construct: gene PDH; isolated PQQ (AA12) dehydrogenase domain, residues 240-649, recombinant from Pichia pastoris, purified as apo-form
T1 sequence (A8P0V4 240-649): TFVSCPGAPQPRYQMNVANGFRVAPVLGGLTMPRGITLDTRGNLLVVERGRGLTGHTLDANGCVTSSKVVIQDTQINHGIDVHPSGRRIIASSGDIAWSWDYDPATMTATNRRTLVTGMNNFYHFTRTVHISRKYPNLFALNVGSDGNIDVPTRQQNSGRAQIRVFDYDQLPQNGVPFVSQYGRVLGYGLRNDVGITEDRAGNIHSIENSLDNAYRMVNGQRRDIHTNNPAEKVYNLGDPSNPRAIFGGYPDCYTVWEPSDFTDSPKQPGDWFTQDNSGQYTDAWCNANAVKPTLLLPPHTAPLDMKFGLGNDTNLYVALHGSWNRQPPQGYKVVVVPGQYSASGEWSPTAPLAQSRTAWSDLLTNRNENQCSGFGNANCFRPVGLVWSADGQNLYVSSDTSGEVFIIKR
Test: UV-vis spectral reduction of PQQ; PMS/DCPIP assay
Assay type: biochemical
Settings: holo-form; 1 mM L-fucose; 50 mM HEPES pH 7.0; 1 mM CaCl2; room temperature (spectra)

Compound: C[C@@H]1OC(O)[C@@H](O)[C@H](O)[C@@H]1O (stereo partly drawn) [L-fucose]
- UV-vis spectral reduction of PQQ; PMS/DCPIP assay: The addition of L-fucose resulted in the reduction of PQQ
